Assay results: patent US20220125051A1, “PRE-HARVEST DESICCATION METHOD” (SYNGENTA CROP PROTECTION AG, priority 2019, published 2022)

Key:
Test in all cases: Post-emergence efficacy, Method A
Format in all cases: in vivo
[1] = test system: Chenopodium album (CHEAL); conditions: Chenopodium album, post-emergence, 312 h; Application rate 500 g/Ha; evaluated after 13 days; 100=total damage to plant, 0=no damage to plant; read-out: Control of weed species after post-emergence application, CHEAL
Method in brief: (§1)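 Plants raised 14 days from seed in standard soil in a glasshouse (24/16 °C day/night, 14 h light, 65% humidity) were sprayed with compound dissolved in acetone plus IF50 solvent/emulsifier (50 g/l solution), diluted with 0.25% or 1% Empicol ESC70 + 1% ammonium sulphate. Damage was scored visually after 13 days (0 = none, 100 = total).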

Lolium perenne (LOLPE) = conditions: Lolium perenne, post-emergence, 312 h, Application rate 500 g/Ha; evaluated after 13 days; 100=total damage to plant, 0=no damage to plant; read-out: Control of weed species after post-emergence application, LOLPE
Method in brief: as §1

[2] = test system: Digitaria sanguinalis (DIGSA); conditions: Digitaria sanguinalis, post-emergence, 312 h; Application rate 500 g/Ha; evaluated after 13 days; 100=total damage to plant, 0=no damage to plant; read-out: Control of weed species after post-emergence application, DIGSA
Method in brief: as §1

[3] = test system: Amaranthus palmeri (AMAPA); conditions: Amaranthus palmeri, post-emergence, 312 h; Application rate 500 g/Ha; evaluated after 13 days; 100=total damage to plant, 0=no damage to plant; read-out: Control of weed species after post-emergence application, AMAPA
Method in brief: as §1

[4] = test system: Euphorbia heterophylla (EPHHL); conditions: Euphorbia heterophylla, post-emergence, 312 h; Application rate 500 g/Ha; evaluated after 13 days; 100=total damage to plant, 0=no damage to plant; read-out: Control of weed species after post-emergence application, EPHHL
Method in brief: as §1

[5] = test system: Ipomoea hederacea (IPOHE); conditions: Ipomoea hederacea, post-emergence, 312 h, Application rate 500 g/Ha; evaluated after 13 days; 100=total damage to plant, 0=no damage to plant; read-out: Control of weed species after post-emergence application, IPOHE
Method in brief: as §1

Setaria faberi (SETFA) = conditions: Setaria faberi, post-emergence, 312 h; Application rate 500 g/Ha; evaluated after 13 days; 100=total damage to plant, 0=no damage to plant; read-out: Control of weed species after post-emergence application, SETFA
Method in brief: as §1

Eleusine indica (ELEIN) = conditions: Eleusine indica, post-emergence, 312 h; Application rate 500 g/Ha; evaluated after 13 days; 100=total damage to plant, 0=no damage to plant; read-out: Control of weed species after post-emergence application, ELEIN
Method in brief: as §1

[6] = test system: Echinochloa crus-galli (ECHCG); conditions: Echinochloa crus-galli, post-emergence, 312 h; Application rate 500 g/Ha; evaluated after 13 days; 100=total damage to plant, 0=no damage to plant; read-out: Control of weed species after post-emergence application, ECHCG
Method in brief: as §1

| Compound | pest or weed control at 500 g/ha [1] [%] | pest or weed control at 500 g/ha (Lolium perenne (LOLPE)) [%] | pest or weed control at 500 g/ha [2] [%] | pest or weed control at 500 g/ha [3] [%] | pest or weed control at 500 g/ha [4] [%] | pest or weed control at 500 g/ha [5] [%] | pest or weed control at 500 g/ha (Setaria faberi (SETFA)) [%] | pest or weed control at 500 g/ha (Eleusine indica (ELEIN)) [%] | pest or weed control at 500 g/ha [6] [%] |
| --- | --- | --- | --- | --- | --- | --- | --- | --- | --- |
| O=S(=O)([O-])CC[n+]1ccc(-c2ccc(F)cn2)cn1 [Compound A72] | 40 | 20 | 30 | 60 | 70 | 40 | 40 | 30 | 40 |
| O=C([O-])CC[n+]1ccc(-c2cccc(C(F)(F)F)n2)cn1 [Compound A73] | 30 | 40 | 30 | 40 | 60 | 30 | 60 | 60 | 60 |
| O=S(=O)([O-])CC[n+]1ccc(-c2cccc(C(F)(F)F)n2)cn1 [Compound A74] | 30 | 60 | 50 | 60 | 60 | 50 | 80 | 80 | 60 |
| Cc1cccc(-c2cc[n+](CCS(=O)(=O)[O-])nc2)n1 [Compound A75] | 30 | 50 | 50 | 60 | 60 | 20 | 70 | 60 | 50 |
| COc1cc(OC)nc(-c2cc[n+](CCC(=O)[O-])nc2)n1 [Compound A76] | 20 | 30 | 20 | 30 | 30 | 20 | 40 | 30 | 30 |
| COc1cnc(-c2cc[n+](CCCS(=O)(=O)[O-])nc2)cn1 [Compound A78] | 10 | 20 | 40 | 0 | 20 | 20 | 40 | 30 | 30 |
| O=S(=O)([O-])CCC[n+]1ccc(-c2cnc(Cl)cn2)cn1 [Compound A79] | 30 | 0 | 20 | 10 | 10 | 0 | 10 | 20 | 10 |
| CC(C)OC(=O)CC[n+]1ccc(-c2ncccn2)cn1 [Compound A81, isopropyl 3-(4-pyrimidin-2-ylpyridazin-1-ium-1-yl)propanoate 2,2,2-trifluoroacetate] | 90 | 40 | 100 | 100 | 100 | 40 | 90 | 80 | 90 |
| CCOC(=O)CC[n+]1ccc(-c2ncccn2)cn1 [Compound A82] | 80 | 0 | 30 | 70 | 40 | 20 | 60 | 60 | 30 |
| Cc1cncc(-c2cc[n+](CCS(=O)(=O)[O-])nc2)n1 [Compound A83] | 80 | 70 | 100 | 90 | 90 | 40 | 90 | 100 | 50 |
| O=S(=O)([O-])CCC[n+]1ccc(-c2cncc(Cl)n2)cn1 [Compound A84] | 80 | 30 | 50 | 100 | 90 | 30 | 50 | 20 | 20 |
| Cc1cncc(-c2cc[n+](CCC(=O)O)nc2)n1 [Compound A85] | 90 | 70 | 90 | 90 | 100 | 30 | 90 | 90 | 70 |
| O=C(O)CC[n+]1ccc(-c2ccnc(O)n2)cn1 [Compound A86] | 40 | 10 | 30 | 30 | 50 | 40 | 40 | 10 | 20 |
| Cc1c[n+](CCS(=O)(=O)[O-])ncc1-c1ncccn1 [Compound A87] | 30 | 70 | 70 | 50 | 50 | 40 | 70 | 60 | 70 |
| Cc1n[n+](CCS(=O)(=O)[O-])ccc1-c1ncccn1 [Compound A88, 2-(3-methyl-4-pyrimidin-2-yl-pyridazin-1-ium-1-yl)ethanesulfonate] | 70 | 60 | 90 | 100 | 60 | 30 | 70 | 90 | 60 |
| CS(=O)(=O)NC(=O)CC[n+]1ccc(-c2ncccn2)cn1 [Compound A89] | 40 | 40 | 50 | 100 | 100 | 70 | 70 | 40 | 60 |
| COc1cncc(-c2cc[n+](CCCS(=O)(=O)[O-])nc2)n1 [Compound A90] | 20 | 20 | 30 | 40 | 60 | 30 | 30 | 20 | 20 |
| CCOC(=O)CC[n+]1ccc(-c2ccccn2)cn1 [Compound A91] | 20 | 20 | 50 | 40 | 40 | 20 | 60 | 60 | 60 |
| CN(C)C(=O)c1cnc(-c2cc[n+](CCC(=O)[O-])nc2)nc1 [Compound A92] | 90 | 50 | 60 | 90 | 70 | 100 | 90 | 90 | 80 |
